Measured values: PubChem BioAssay AID1250 (SRMLSC, 2008)
Active and inactive are the calls of the source.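 Rule for the calls: active = inhibition of at least 30% at one or more tested concentrations; inactive = inhibition below 30% at every dose.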

assay: antiviral protection against BTV-induced cell death – arbovirus, BSR cells, confirmation (AID 1250); details: BSR cells, Bluetongue virus CPE, ATP luminescence, 72 h; at 20 µM (top of the series)

Row | SMILES | CPE inhibition
1 | Cc1ccc2c(c1)c(Sc1ccccc1)c(CC(=O)O)n2C | -0.49% (inactive)
2 | Cc1nnc2sc(SCc3cccc(Cl)c3)nn2c1=O | 14.2% (inactive)
3 | C=CCOc1c(Br)cc(/C=N/Nc2ccc(C(=O)O)cc2)cc1OCC | 14.1% (inactive)
4 | CC(=O)Nc1ccc(-c2csc(NC(=O)c3ccc(C)o3)n2)cc1 | 27.8% (inactive)
5 | CCc1cccc(C)c1NC(=O)CN(C)Cc1ccc(Br)cc1 | 10.2% (inactive)
6 | O=[N+]([O-])c1cc(/C=N\Nc2nc(-c3ccccc3)cs2)ccc1O | 26.1% (inactive)
7 | O=C(NC1=NCCS1)c1ccc(Cl)c(S(=O)(=O)N2CCCC2)c1 | 12.3% (inactive)
8 | CCOC(=O)c1nn(-c2ccc(Cl)cc2)c2nc(Nc3ccccc3)cc(=O)n12 | 28.9% (inactive)
9 | COc1ccc(C(=O)Nc2ccccc2C(=O)O)cc1Cl | 24.1% (inactive)
10 | N#Cc1c(N2C(=O)Nc3ccccc3N2O)sc2c1CCCCCC2 | 19.9% (inactive)
11 | O=C(O)CSc1nnc(CNc2cccc(C(F)(F)F)c2)n1Cc1ccco1 | 3.89% (inactive)
12 | O=C(O)CCCC(=O)Nc1nc2n(n1)C(c1ccc(F)cc1)CC(c1ccc(Cl)cc1)N2 (stereo not given) | 2.43% (inactive)
13 | CCCn1c(N)c(C(=O)CSc2nc3ccccc3c(=O)n2-c2ccc(OC)cc2)c(=O)[nH]c1=O | 1.41% (inactive)
14 | COCCn1c(SCc2nc3scc(-c4ccc(Cl)cc4)c3c(=O)[nH]2)nnc1-c1cccc(C)c1 | 17.4% (inactive)
15 | CCOC(=O)c1ccc(NC(=O)Cn2nnc(-c3ccccc3)n2)cc1 | 12.9% (inactive)
16 | Cc1ccc(S(=O)(=O)N2CCN(c3ccnc4cc(Cl)ccc34)CC2)cc1C | 10.9% (inactive)
17 | O=[N+]([O-])c1ccc(NCCNCCOc2nonc2-c2ccccc2)c([N+](=O)[O-])c1 | 6.24% (inactive)
18 | N#Cc1c2n(c3c(=S)nc[nH]c13)CCCCC2 | 9.66% (inactive)
19 | CCOC(=O)c1c(NC(=O)CSc2ncn[nH]2)sc(C)c1C | 21% (inactive)
20 | O=C(CCn1c(=O)sc2ccccc21)NCCCn1ccnc1 | 4.88% (inactive)
21 | C=CCn1c(SCC(=O)Nc2nc3ccccc3s2)nnc1-c1ccccc1O | 21.1% (inactive)
22 | CCOc1cccc(C(=O)Nc2ccccc2N2CCN(C(=O)C(C)C)CC2)c1 | 9.61% (inactive)
23 | COc1ccc(NC(=O)C(=O)N/N=C/c2cc(C)n(-c3cccc(Cl)c3Cl)c2C)c(OC)c1 | 20.7% (inactive)
24 | Cc1csc(NC(=O)c2ccc(C)c(S(=O)(=O)N3CCCCC3)c2)n1 | 24.1% (inactive)

Row | SMILES | CPE inhibition
25 | O=C(Nn1c(SCc2cccc([N+](=O)[O-])c2)nc2ccccc2c1=O)c1ccccc1 | 29.8% (inactive)
26 | Cc1noc(C)c1C(=O)OCC(=O)Nc1cc(Cl)ccc1Oc1ccccc1 | 22.6% (inactive)
27 | COc1cccc(C2=CC(c3ccc(N(C)C)cc3)n3ncnc3N2)c1 (stereo not given) | 8.59% (inactive)
28 | COc1ccc(-c2csc(Nc3ncccc3C)n2)cc1OC | 14.9% (inactive)
29 | Cc1ccc(NC(=O)c2cncc(Br)c2)c(O)c1 | 13.8% (inactive)
30 | Cc1ccc(-n2cccc2/C=C2/C(=N)N3C(=NC2=O)SN=C3S(C)(=O)=O)cc1 | 12.1% (inactive)
31 | Cc1ccc(-n2cccc2/C=C2\C(=N)N3N=C(C(C)C)SC3=NC2=O)cc1 | 25.2% (inactive)
32 | O=C(O)c1c(NC(=O)c2cccc3ccccc23)sc2c1CCC2 | 0.01% (inactive)
33 | O=C(c1ccco1)N1CCN(c2nc(-c3ccc(F)cc3)cs2)CC1 | 17.1% (inactive)
34 | COc1ccccc1N1CCN(Cc2ccc(OC)c3ccccc23)CC1 | 11.1% (inactive)
35 | O=C1CN(C(=O)/C=C/c2ccc(Cl)cc2)c2ccccc2N1 | 7.62% (inactive)
36 | Oc1ccc(F)cc1-c1cc(-c2ccc3c(c2)OCCO3)n[nH]1 | 7.86% (inactive)
37 | COc1ccccc1-n1c(C)cc(/C=C2/C(=N)N3C(=NC2=O)SN=C3S(C)(=O)=O)c1C | 18.1% (inactive)
38 | Cc1cccc(CSc2nn3c(=O)c(C)nnc3s2)c1 | 19.1% (inactive)
39 | COc1ccc(/C=C/c2nc(-c3ccccc3O)n[nH]2)cc1OC | 14% (inactive)
40 | O=C(Nc1ccn(Cc2ccccc2)n1)c1n[nH]c([N+](=O)[O-])c1Cl | 14% (inactive)
41 | Cc1nn(CC(O)Cn2c3c(c4ccccc42)CCN(C)C3=O)c(C)c1Br (stereo not given) | 22.4% (inactive)
42 | CCOC1=C/C(=C/c2c(N)n3nc(-c4ccccc4)sc3nc2=O)C=CC1=O | 18% (inactive)
43 | CSc1ncc(Cl)c(C(=O)C(C#N)c2nc3c(C)cc(C)cc3c(=O)[nH]2)n1 (stereo not given) | 20.1% (inactive)
44 | COc1ccc(-c2nnc(-c3ccc(Br)o3)o2)cc1OC | 14.5% (inactive)
45 | O=C(CN1CCCCCC1)N/N=C/c1cccs1 | -0.49% (inactive)
46 | CCc1nn2cc(C(=O)c3ccccc3O)cnc2c1-c1ccc(F)cc1 | 14.2% (inactive)
47 | Cc1c(Cl)cccc1NC(=O)c1cc(-c2ccccc2O)n[nH]1 | 17.9% (inactive)
48 | N#C/C(=C\c1cc2ccccc2nc1N1CCCCC1)C(N)=O | 22.5% (inactive)

Row | SMILES | CPE inhibition
49 | CCCCCNc1nc2ccccc2nc1NS(=O)(=O)c1cccs1 | 20.4% (inactive)
50 | CCc1cc2c(=O)c(-c3cscn3)coc2c(CN(C)C)c1O | 5.92% (inactive)
51 | O=C(O)C(Cc1ccccc1)N=Cc1c(O)c2ccccc2oc1=O (stereo not given) | 7.31% (inactive)
52 | CCCc1cc2c(OC(=O)CC)c(-c3ccc(C(=O)OCC)o3)c(=O)oc2cc1OC | 19.6% (inactive)
53 | COc1ccc(CCNCC(O)c2ccccc2)cc1 (stereo not given) | 13.7% (inactive)
54 | CC(C)CSC1=NSC2=NC(=O)/C(=C\c3cccs3)C(=N)N12 | 28.6% (inactive)
55 | Cc1nn(Cc2ccccc2)c(Cl)c1C(=O)NC1CCCc2ccccc21 (stereo not given) | 16.5% (inactive)
56 | CC(C)Oc1cccc(C(=O)NC(=S)Nc2ccccc2)c1 | 6.77% (inactive)
57 | O=C(Nc1sc2c(c1C(=O)O)CCCC2)c1cccs1 | 25.3% (inactive)
58 | O=C(Nc1ccccc1C(=O)O)c1ccc(Br)c(S(=O)(=O)NCc2ccccc2)c1 | 21.6% (inactive)
59 | COCCN1C(=O)/C(=C/c2ccc(Oc3ccc([N+](=O)[O-])cn3)c(OC)c2)SC1=Nc1ccccc1 | 25.6% (inactive)
60 | O=C(O)c1csc(N/N=C/c2ccc(Br)cc2)n1 | 8.09% (inactive)
61 | CSc1nc(-c2ccc(Cl)cc2Cl)[nH]c(=O)c1C#N | 24.3% (inactive)
62 | COc1ccc2c(c1)c1nc3ccccc3nc1n2Cc1ccc(OC)c(OC)c1 | 15.8% (inactive)
63 | Cc1cc(C)c(NC(=O)c2oc3ccccc3c2COc2ccccc2)c(C)c1 | 5.41% (inactive)
64 | O=C(O)c1cccc(NC(=S)NC(=O)c2ccc(-c3ccc(Cl)cc3)o2)c1 | 29.9% (inactive)
65 | N#Cc1c(-c2ccccc2)nc(SCC(=O)N(c2ccccc2)c2ccccc2)[nH]c1=O | 12.2% (inactive)
66 | CC(C)S(=O)(=O)C1=NSC2=NC(=O)/C(=C\c3ccc(-c4cccc(C(=O)O)c4)o3)C(=N)N21 | 24.2% (inactive)
67 | NC(=O)c1cc([N+](=O)[O-])ccc1NCc1cccnc1 | 3.11% (inactive)
68 | Cc1[nH]nc2c1-c1nc3ccccc3nc1C(C)(C)C2 | 15.7% (inactive)
69 | CCOC(=O)CC1=NS(=O)(=O)c2ccccc2N1 | 2.01% (inactive)
70 | O=c1[nH]c(SCc2ccccc2)nnc1-c1ccccc1 | 3.2% (inactive)
71 | COc1cccc2sc(NN)nc12 | 15.8% (inactive)
72 | N#Cc1c(SCc2cccc(Cl)c2)sc(C(=O)c2ccccc2)c1N | 25.2% (inactive)

Row | SMILES | CPE inhibition
73 | O=Cc1ccc(OCc2ccccn2)cc1 | 2.77% (inactive)
74 | CCSc1nnc(NC(=O)c2ccc(Br)s2)s1 | 16.8% (inactive)
75 | FC(F)(F)c1cccc(Oc2ccc3c(C(F)(F)F)cc(C(F)(F)F)nc3n2)c1 | 3.1% (inactive)
76 | COc1ccccc1NC(=O)C12CC3CC(C1)CC(c1ccc(C)cc1)(C3)C2 | 18.9% (inactive)
77 | CC1=NN2C(=N)/C(=C\c3ccc(SCc4ccccc4)o3)C(=O)N=C2S1 | 21.1% (inactive)
78 | COC(=O)c1c(SCc2ccc(C#N)cc2)nc(=O)[nH]c1C | 4.66% (inactive)
79 | O=c1oc(-c2ccccc2)nc2sc3c(c12)CCCC3 | 24.9% (inactive)
80 | COc1ccc(/C=C2/C(=O)N(CC3CCCO3)C(=S)N2C)c(OC)c1 (stereo not given) | 1.63% (inactive)
81 | COCC(C)n1c(SCc2nc3ccccc3c(=O)[nH]2)nc2ccccc2c1=O (stereo not given) | 29.9% (inactive)
82 | C=CCn1c(N)c(C(=O)NCc2cccnc2)sc1=S | 2.55% (inactive)
83 | COc1ccccc1NC(=O)CN1CCC(n2c(C)nc3cc(F)ccc32)CC1 | 23.7% (inactive)
84 | CCSc1nc2c(sc3nc(C)cc(C)c32)c(=O)[nH]1 | 18% (inactive)
85 | COc1ccc2nc(N3C(=O)CC(Cc4cc(C)cc(C)c4)C3=O)sc2c1 (stereo not given) | 13.6% (inactive)
86 | CC1=Nc2ccc(C)cc2/C1=C/c1c(N)n2c(S(=O)(=O)C(C)C)nsc2nc1=O | 15.9% (inactive)
87 | COc1ccc(NS(=O)(=O)c2cc(NC(=O)/C=C/c3cccs3)ccc2N2CCOCC2)cc1 | 18.4% (inactive)
88 | O=[N+]([O-])c1cccc(/C=N\N=C2c3ccccc3-c3ccccc32)c1O | 22.2% (inactive)
89 | O=C(CSc1nccc(=O)[nH]1)N1N=C2/C(=C/c3ccco3)CCCC2C1c1ccco1 (stereo not given) | 21.5% (inactive)
90 | C=CCSc1nnc(NC(=O)CSc2nc3ccccc3o2)s1 | 21.8% (inactive)
91 | O=C(O)CCn1cc(/C=C/C(=O)c2ccc(Cl)cc2)c(-c2ccc(Br)cc2)n1 | 13.8% (inactive)
92 | Cc1ccccc1-n1nc(CSc2nc3ccccc3[nH]2)c(-c2ccccc2)c1N | 14.9% (inactive)
93 | Cc1cccc(C)c1Nc1nnc(SC/C(O)=C(\C#N)c2nc3ccccc3[nH]2)s1 | 16.8% (inactive)
94 | Cc1ccc(C(CC(=O)O)Nc2nc(N3CCCCC3)nc(N3CCCCC3)n2)cc1 (stereo not given) | 9.28% (inactive)
95 | CN(C(=O)c1coc(=O)c2ccccc12)c1ccc(Br)cc1 | 18.4% (inactive)
